In patent publication US20160115136A1, “COMPOUNDS, COMPOSITIONS COMPRSING SAME, AND METHODS RELATED THERETO” (UNIVERSITY OF IOWA RESEARCH FOUNDATION, priority 2013, published 2016):
In brackets after ≈: the same amount, converted by molar mass. Several values for one entry are separate records, joined by “and”; a condition that tells them apart may be missing. Identical values can stand only once. Like-named read-outs stand apart in the source and are kept apart here.

How the values were obtained:
[1] = tested on: glutamate racemase isozyme 2 from Bacillus anthracis (RacE2); assay: biochemical; assay type: biochemical; conditions: FIG. 14, competitive inhibition model
[2] = target: T1, glutamate racemase from H. pylori (Helicobacter pylori, UniProt P56068); assay type: biochemical
T1 sequence (P56068 1-255): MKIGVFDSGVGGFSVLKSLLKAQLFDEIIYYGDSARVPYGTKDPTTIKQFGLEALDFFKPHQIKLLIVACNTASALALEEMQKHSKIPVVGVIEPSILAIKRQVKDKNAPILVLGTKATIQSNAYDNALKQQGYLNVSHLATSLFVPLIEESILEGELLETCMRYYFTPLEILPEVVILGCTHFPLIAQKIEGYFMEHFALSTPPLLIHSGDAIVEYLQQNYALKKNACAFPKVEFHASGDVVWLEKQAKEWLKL

[3] = target: T2, glutamate racemase (GR) from B. subtilis (Bacillus subtilis, UniProt P94556); conditions: for Ki: read-out: Ki value
T2 sequence (P94556 whole entry): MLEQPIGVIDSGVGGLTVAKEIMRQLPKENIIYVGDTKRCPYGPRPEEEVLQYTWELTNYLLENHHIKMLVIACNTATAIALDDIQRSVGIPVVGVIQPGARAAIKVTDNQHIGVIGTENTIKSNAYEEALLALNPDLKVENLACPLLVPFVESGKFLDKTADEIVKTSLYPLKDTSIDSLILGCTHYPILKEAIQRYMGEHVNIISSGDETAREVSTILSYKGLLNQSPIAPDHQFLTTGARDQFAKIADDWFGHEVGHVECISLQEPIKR

[4] = tested on: B. subtilis; assay: Cell wall lysis assay (modified CytoTox-Glo, luminescence)
[5] = tested on: S. aureus; assay: as above
[6] = tested on: B. subtilis DB104; assay: Inhibition of bacterial growth (MIC50, absorbance at 600 nm, 24 h)
[7] = tested on: E. coli Acella; assay: as above; conditions: for growth inhibition: concentrations <3 mg mL^−1
[8] = tested on: S. aureus ATCC 12600; assay: as above; conditions: for growth inhibition: concentrations <3 mg mL^−1
[9] = target: T3, glutamate racemase isozyme 2 from Bacillus anthracis (RacE2) (Bacillus anthracis, UniProt A0A6L8PKK6); assay type: biochemical; conditions: 25° C., pH 8.0
T3 sequence (A0A6L8PKK6 1-269): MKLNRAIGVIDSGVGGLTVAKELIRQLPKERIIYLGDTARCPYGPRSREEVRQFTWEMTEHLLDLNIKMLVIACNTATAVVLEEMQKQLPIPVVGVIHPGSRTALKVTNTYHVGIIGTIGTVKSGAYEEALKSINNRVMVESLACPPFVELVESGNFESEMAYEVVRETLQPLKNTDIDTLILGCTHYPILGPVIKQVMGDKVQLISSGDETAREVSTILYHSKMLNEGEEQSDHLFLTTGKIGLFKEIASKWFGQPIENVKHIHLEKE

[10] = target: GR from B. anthracis isozyme 1 (RacE1) (Bacillus anthracis, UniProt A0A6L8PVU3); assay: biochemical
Chain of GR from B. anthracis isozyme 1 (RacE1) (A0A6L8PVU3 1-276): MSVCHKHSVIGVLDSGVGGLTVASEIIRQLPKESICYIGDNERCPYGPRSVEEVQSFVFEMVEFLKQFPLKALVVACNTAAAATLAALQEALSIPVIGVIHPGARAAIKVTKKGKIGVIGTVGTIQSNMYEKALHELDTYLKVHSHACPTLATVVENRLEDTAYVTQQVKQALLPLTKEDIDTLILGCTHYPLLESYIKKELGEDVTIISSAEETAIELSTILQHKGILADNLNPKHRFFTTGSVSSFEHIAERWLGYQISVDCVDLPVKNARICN

[11] = target: T3, glutamate racemase isozyme 2 from Bacillus anthracis (RacE2); assay: biochemical; assay type: biochemical
[12] = target: GR from F. tularensis (Francisella tularensis, UniProt Q5NFN6); assay: biochemical
Chain of GR from F. tularensis (Q5NFN6 1-265): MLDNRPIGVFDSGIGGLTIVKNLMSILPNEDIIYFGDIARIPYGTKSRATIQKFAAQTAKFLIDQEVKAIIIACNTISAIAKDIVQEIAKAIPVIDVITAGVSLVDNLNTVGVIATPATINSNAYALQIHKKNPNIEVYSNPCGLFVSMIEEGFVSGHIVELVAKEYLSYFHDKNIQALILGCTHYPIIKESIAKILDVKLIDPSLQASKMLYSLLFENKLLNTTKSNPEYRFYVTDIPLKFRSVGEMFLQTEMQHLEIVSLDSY

[13] = target: T2, glutamate racemase (GR) from B. subtilis; assay: biochemical
[14] = Ki converted into binding energy divided by number of non-hydrogen atoms
[15] = from log(Ki) and calculated logP (MarvinSketch)
[16] = Staphylococcus aureus, ATCC12600

Question: For “7-fluoro-2-sulfo-1H-benzo[d]imidazole-5-carboxylic acid [Compound 4] [listing 1 of 2 here]”, which “potency against B. anthracis RacE2 relative to B. subtilis GR” value [1] is on record?
Answer: Its value is “equal potency”.

Question: And the IC50 ([2]; best-fit value, Table 5)?
Answer: Its IC50 is 102 µM.

Question: And the “Hill Slope (best-fit value)” value ([2]; dose-response fit)?
Answer: The value was −6.498.

Question: What about the IC50 ([2]; dose-response inhibition model, FIG. 16) of the same compound?
Answer: The IC50 was roughly 100 µM.

Question: And the “LogIC50 (best-fit value)” value ([2]; log of compound concentration in mM)?
Answer: Its value is −0.9935.

Question: What about the “LE (ligand efficiency)” value [3, 14] of the same compound?
Answer: Its value is 0.45 kcal mol^−1 atom^−1.

Question: And the Ki [3]?
Answer: The Ki was 2.5 µM.

Question: What about the EC50 for lysis [4] of the same compound?
Answer: The EC50 for lysis was 520 mg/L.

Question: And the increase in luminescence ([4]; low-millimolar range)?
Answer: The increase in luminescence was 400%.

Question: And the EC50 ([4]; read-out: EC50 value of cell lysis, FIG. 17, within the same range as the MIC50)?
Answer: Its EC50 is roughly 2000 µM.

Question: What about the increase in luminescence ([5]; S. aureus, millimolar inhibitor concentration range) of the same compound?
Answer: The increase in luminescence was roughly 40%.

Question: And the MIC50 ([6]; B. subtilis)?
Answer: The MIC50 was 260 ± 110 µg/mL.

Question: And the “MIC50 value for growth inhibition” value ([6]; B. subtilis)?
Answer: The value was 260 mg/L.

Question: And the MIC50 ([6]; B. subtilis, FIG. 15)?
Answer: The MIC50 was 1,788 μM and 460 μg/mL.

Question: What about the “MIC50 value for bacterial growth inhibition” value ([6]; B. subtilis, FIG. 17) of the same compound?
Answer: Its value is 2000 µM.

Question: What about the MIC50 ([7]; E. coli) of the same compound?
Answer: Its MIC50 is 1600 ± 200 mg/L.

Question: What about the MIC50 ([8]; S. aureus) of the same compound?
Answer: The MIC50 was 1000 ± 250 mg/L.

Question: For “7-fluoro-2-sulfo-1H-benzo[d]imidazole-5-carboxylic acid [Compound 4] [listing 2 of 2 here]”, which Ki [9] is on record?
Answer: Its Ki is 5.4 ± 2.5 µM.

Question: For `O=S(=O)(O)c1nc2ccccc2[nH]1` [Compound 2, 1H-benzimidazole-2-sulfonic acid], which IC50 [10] is on record?
Answer: Its IC50 is 120 ± 5 µM.

Question: What about the IC50 [11] of the same compound?
Answer: The IC50 was 40 ± 5 µM.

Question: And the IC50 [12]?
Answer: The IC50 was 110 ± 12 µM.

Question: And the “LE (ligand efficiency)” value [3]?
Answer: Its value is 0.53 kcal mol^−1 atom^−1.

Question: What about the “LiPE (lipophilic efficiency)” value [3] of the same compound?
Answer: The value was 5.3.

Question: And the Ki ([3]; GR from B. subtilis)?
Answer: Its Ki is 9 µM.

Question: What about the IC50 [13] of the same compound?
Answer: The IC50 was 250 ± 20 µM.

Question: What about the MIC50 ([6]; Bacillus subtilis, DB104) of the same compound?
Answer: The MIC50 was 720 ± 60 µg/mL (≈ 3.63 mM).

Question: What does the source list for `Cc1ccc2[nH]c(S(=O)(=O)O)nc2c1` [Compound 15]?
Answer: LE (ligand efficiency) [3, 14]: 0.46 kcal mol^−1 atom^−1; LiPE (lipophilic efficiency) [3, 15]: 4.4; Ki [13]: 21 ± 5 µM; MIC50 ([6]; Bacillus subtilis, DB104): > 3000 µg/mL

Question: How did the “LE (ligand efficiency)” value [3, 14] turn out when `CCCCNS(=O)(=O)c1ccc2[nH]c(S(=O)(=O)O)nc2c1` [Compound 18, 5-(n-butylsulfamoyl)-1H-benzo[d]imidazole-2-sulfonic acid] was run?
Answer: Its value is 0.30 kcal mol^−1 atom^−1.

Question: What about the “LiPE (lipophilic efficiency)” value [3, 15] of the same compound?
Answer: The value was 5.0.

Question: What about the Ki [13] of the same compound?
Answer: The Ki was 12 ± 3.6 µM.

Question: What about the MIC50 ([6]; Bacillus subtilis, DB104) of the same compound?
Answer: Its MIC50 is 360 ± 20 µg/mL (≈ 1.08 mM).

Question: What about the growth inhibition ([7]; E. coli) of the same compound?
Answer: Its growth inhibition is “no significant growth inhibition”.

Question: And the MIC50 ([7]; Escherichia coli)?
Answer: The MIC50 was greater than 3000 mg/L.

Question: And the growth inhibition ([8]; S. aureus)?
Answer: Its growth inhibition is “no significant growth inhibition”.

Question: And the MIC50 [8, 16]?
Answer: Its MIC50 is greater than 3000 mg/L.

Question: For `O=C(c1ccccc1)c1ccc2[nH]c(S(=O)(=O)O)nc2c1` [Compound 24], which “loss in binding affinity versus parent compound” value [3] is on record?
Answer: The value was roughly 100 fold.

Question: What about the “LE (ligand efficiency)” value [3, 14] of the same compound?
Answer: Its value is 0.20 kcal mol^−1 atom^−1.

Question: And the “LiPE (lipophilic efficiency)” value [3, 15]?
Answer: Its value is 1.9.

Question: And the Ki [13]?
Answer: The Ki was 830 ± 75 µM.

Question: And the MIC50 ([6]; Bacillus subtilis, DB104)?
Answer: Its MIC50 is 140 ± 20 µg/mL (≈ 0.463 mM).

Question: `O=S(=O)(O)c1nc2ccc(Cl)cc2[nH]1` [Compound 26] was tested. Which “LE (ligand efficiency)” value [3, 14] did it give?
Answer: Its value is 0.48 kcal mol^−1 atom^−1.

Question: What about the “LiPE (lipophilic efficiency)” value [3, 15] of the same compound?
Answer: Its value is 4.5.

Question: And the Ki [13]?
Answer: The Ki was 13 ± 2.4 µM.

Question: And the MIC50 ([6]; Bacillus subtilis, DB104)?
Answer: Its MIC50 is greater than 3000 µg/mL.

Question: With `O=S(=O)(O)c1nc2cc(S(=O)(=O)N3CCOCC3)ccc2[nH]1` [Compound 29, 5-(morpholinosulfonyl)-1H-benzo[d]imidazole-2-sulfonic acid] as the compound, how does the “LE (ligand efficiency)” value [3, 14] read?
Answer: The value was 0.34 kcal mol^−1 atom^−1.

Question: And the “LiPE (lipophilic efficiency)” value [3, 15]?
Answer: The value was 6.6.

Question: And the Ki [13]?
Answer: The Ki was 6.4 µM.

Question: What about the MIC50 ([6]; Bacillus subtilis, DB104) of the same compound?
Answer: The MIC50 was 320 ± 10 µg/mL (≈ 0.921 mM).

Question: And the growth inhibition ([7]; E. coli)?
Answer: The growth inhibition was “no significant growth inhibition”.

Question: And the MIC50 ([7]; Escherichia coli)?
Answer: Its MIC50 is greater than 3000 mg/L.

Question: What about the growth inhibition ([8]; S. aureus) of the same compound?
Answer: Its growth inhibition is “no significant growth inhibition”.

Question: What about the MIC50 [8, 16] of the same compound?
Answer: Its MIC50 is greater than 3000 mg/L.

Question: Which “luminescence response (cell lysis)” value ([5]; S. aureus exposed 24 h, control antibiotics, FIG. 23A) does the source give for `CC1(C)S[C@@H]2[C@H](NC(=O)[C@H](N)c3ccccc3)C(=O)N2[C@H]1C(=O)O` [ampicillin, reference compound] here?
Answer: The value was “dose-dependent increase in luminescence”.
